Experimental data published in ChEMBL document CHEMBL1201862, “PubChem BioAssay data set” (2004).
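These data come from cells grown in 96-well plates and exposed to compound for 48 hours at five concentrations. GI50 marks 50% less growth.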 Activity calls are given as the source filed them. Cut-off read from the data, not from the text of the source: active = GI50 up to about 1.1 µM and inactive = higher.

Tests used:
Experiment in all cases: growth of human tumour cells (NCI), 48 h
[1] = test system: SK-MEL-5
[2] = test system: NCI-H522
[3] = test system: MCF7
[4] = test system: SN12C
[5] = test system: SW-620
[6] = test system: U-251
[7] = test system: A498
[8] = test system: HCC 2998
[9] = test system: OVCAR-8
[10] = test system: SF-268
[11] = test system: HT-29
[12] = test system: OVCAR-4
[13] = test system: NCI-H23
[14] = test system: KM12
[15] = test system: SNB-19
[16] = test system: SF-539
[17] = test system: DMS-273
[18] = test system: COLO 205
[19] = test system: OVCAR-3
[20] = test system: A549
[21] = test system: SNB-78
[22] = test system: UO-31
[23] = test system: LOX IMVI
[24] = test system: SNB-75
[25] = test system: UACC-62
[26] = test system: OVCAR-5
[27] = test system: RXF 393
[28] = test system: NCI-H460
[29] = test system: HOP-62
[30] = test system: HL-60
[31] = test system: DMS-114
[32] = test system: DLD-1
[33] = test system: SF-295
[34] = test system: HOP-18
[35] = test system: SK-MEL-28
[36] = test system: EKVX
[37] = test system: SK-MEL-2
[38] = test system: KM-20L2
[39] = test system: M19-MEL
[40] = test system: IGROV-1
[41] = test system: Malme-3M
[42] = test system: HCT-116
[43] = test system: XF498
[44] = test system: NCI/ADR-RES
[45] = test system: HCT-15
[46] = test system: HOP-92
[47] = test system: CCRF-CEM
[48] = test system: UACC-257
[49] = test system: 786-0
[50] = test system: CAKI-1
[51] = test system: MOLT-4
[52] = test system: M14
[53] = test system: SR
[54] = test system: NCI-H226
[55] = test system: ACHN
[56] = test system: RPMI-8226
[57] = test system: SK-OV-3
[58] = test system: TK-10
[59] = test system: K562
[60] = test system: LXFL 529

O=c1oc2c(ccc3occc32)c(N2CCCCC2)c1-c1ccccc1
GI50 [1]: > 72.4 µM (inactive)
GI50 [2]: > 86.3 µM (inactive)
GI50 [3]: > 93.5 µM (inactive)
GI50 [4]: > 100 µM (inactive)
GI50 [5]: > 100 µM (inactive)
GI50 [6]: > 100 µM (inactive)
GI50 [7]: > 100 µM (inactive)
GI50 [8]: > 100 µM (inactive)
GI50 [9]: > 100 µM (inactive)
GI50 [10]: > 100 µM (inactive)
GI50 [11]: 61.2 µM (inactive)
GI50 [12]: > 93.3 µM (inactive)
GI50 [13]: > 100 µM (inactive)
GI50 [14]: > 66.5 µM (inactive)
GI50 [15]: > 100 µM (inactive)
GI50 [16]: > 100 µM (inactive)
GI50 [17]: > 100 µM (inactive)
GI50 [18]: > 100 µM (inactive)
GI50 [19]: > 100 µM (inactive)
GI50 [20]: > 93.3 µM (inactive)
GI50 [21]: > 91.8 µM (inactive)
GI50 [22]: 12.7 µM (inactive)
GI50 [23]: > 100 µM (inactive)
GI50 [24]: > 80.7 µM (inactive)
GI50 [25]: > 95.1 µM (inactive)
GI50 [26]: > 100 µM (inactive)
GI50 [27]: > 64.3 µM (inactive)
GI50 [28]: > 96.4 µM (inactive)
GI50 [29]: > 100 µM (inactive)
GI50 [30]: 24.2 µM (inactive)
GI50 [31]: > 86.1 µM (inactive)
GI50 [32]: > 100 µM (inactive)
GI50 [33]: 97.3 µM (inactive)
GI50 [34]: > 88.5 µM (inactive)
GI50 [35]: > 100 µM (inactive)
GI50 [36]: > 70.8 µM (inactive)
GI50 [37]: > 100 µM (inactive)
GI50 [38]: > 100 µM (inactive)
GI50 [39]: > 100 µM (inactive)
GI50 [40]: > 100 µM (inactive)
GI50 [41]: > 100 µM (inactive)
GI50 [42]: > 100 µM (inactive)
GI50 [43]: > 100 µM (inactive)
GI50 [44]: > 100 µM (inactive)
GI50 [45]: > 80 µM
GI50 [46]: > 73.8 µM (inactive)

Cc1cccc2c(=O)c([Se]c3coc4c(C)cccc4c3=O)coc12
GI50 [1]: 18.2 µM (inactive)
GI50 [47]: 31.4 µM (inactive)
GI50 [2]: 31.3 µM (inactive)
GI50 [4]: 18.5 µM (inactive)
GI50 [5]: 20.4 µM (inactive)
GI50 [48]: 18.2 µM (inactive)
GI50 [6]: 11.2 µM (inactive)
GI50 [7]: 24.6 µM (inactive)
GI50 [8]: 21.2 µM (inactive)
GI50 [9]: 15.9 µM (inactive)
GI50 [10]: 19.6 µM (inactive)
GI50 [11]: 25.6 µM (inactive)
GI50 [12]: 16.7 µM (inactive)
GI50 [13]: 17.2 µM (inactive)
GI50 [14]: 13.7 µM (inactive)
GI50 [15]: 19.4 µM (inactive)
GI50 [49]: 17.3 µM (inactive)
GI50 [16]: 16.3 µM (inactive)
GI50 [17]: 21.4 µM (inactive)
GI50 [50]: 20.7 µM (inactive)
GI50 [51]: 38.6 µM (inactive)
GI50 [18]: > 10 µM (inactive)
GI50 [19]: 25.2 µM (inactive)
GI50 [20]: 7.71 µM (inactive)
GI50 [21]: 16.3 µM (inactive)
GI50 [52]: 16.4 µM (inactive)
GI50 [22]: 14.9 µM (inactive)
GI50 [23]: 20 µM (inactive)
GI50 [24]: 16.7 µM (inactive)
GI50 [25]: 17.8 µM (inactive)
GI50 [26]: 18.9 µM (inactive)
GI50 [27]: 17.8 µM (inactive)
GI50 [28]: 5.73 µM (inactive)
GI50 [29]: 11.9 µM (inactive)
GI50 [30]: 30.6 µM (inactive)
GI50 [31]: 17.7 µM (inactive)
GI50 [32]: 20.8 µM (inactive)
GI50 [53]: 14.8 µM (inactive)
GI50 [54]: 16.9 µM (inactive)
GI50 [33]: 3.56 µM (inactive)
GI50 [34]: 19 µM (inactive)
GI50 [55]: 18.4 µM (inactive)
GI50 [35]: 16.7 µM (inactive)
GI50 [56]: 29.2 µM (inactive)
GI50 [36]: 17.3 µM (inactive)
GI50 [37]: 18.5 µM (inactive)
GI50 [38]: 21.5 µM (inactive)
GI50 [57]: 17.6 µM (inactive)
GI50 [39]: 16.5 µM (inactive)
GI50 [58]: 29.9 µM (inactive)
GI50 [40]: 13.6 µM (inactive)
GI50 [41]: 19.1 µM (inactive)
GI50 [59]: 69.5 µM (inactive)
GI50 [42]: 5.68 µM (inactive)
GI50 [60]: 14.6 µM (inactive)
GI50 [43]: 19.7 µM (inactive)
GI50 [45]: 19.4 µM
GI50 [46]: 20.8 µM (inactive)

COc1ccc(-c2cc(C(=O)Nc3cccc(C(F)(F)F)c3)nc(S)n2)cc1
GI50 [1]: > 100 µM (inactive)
GI50 [47]: > 100 µM (inactive)
GI50 [2]: > 100 µM (inactive)
GI50 [4]: > 100 µM (inactive)
GI50 [5]: > 100 µM (inactive)
GI50 [48]: > 100 µM (inactive)
GI50 [6]: > 100 µM (inactive)
GI50 [7]: > 100 µM (inactive)
GI50 [8]: > 100 µM (inactive)
GI50 [9]: > 100 µM (inactive)
GI50 [10]: > 100 µM (inactive)
GI50 [11]: > 100 µM (inactive)
GI50 [12]: > 100 µM (inactive)
GI50 [13]: > 100 µM (inactive)
GI50 [14]: > 100 µM (inactive)
GI50 [15]: > 100 µM (inactive)
GI50 [49]: > 100 µM (inactive)
GI50 [16]: > 100 µM (inactive)
GI50 [17]: > 100 µM (inactive)
GI50 [50]: > 100 µM (inactive)
GI50 [51]: > 100 µM (inactive)
GI50 [18]: > 100 µM (inactive)
GI50 [19]: > 100 µM (inactive)
GI50 [20]: > 100 µM (inactive)
GI50 [21]: > 100 µM (inactive)
GI50 [52]: > 100 µM (inactive)
GI50 [22]: > 100 µM (inactive)
GI50 [23]: > 100 µM (inactive)
GI50 [24]: > 100 µM (inactive)
GI50 [25]: > 100 µM (inactive)
GI50 [26]: > 100 µM (inactive)
GI50 [27]: > 100 µM (inactive)
GI50 [28]: > 100 µM (inactive)
GI50 [29]: > 100 µM (inactive)
GI50 [30]: > 100 µM (inactive)
GI50 [31]: > 100 µM (inactive)
GI50 [32]: > 100 µM (inactive)
GI50 [53]: > 100 µM (inactive)
GI50 [54]: > 100 µM (inactive)
GI50 [33]: > 100 µM (inactive)
GI50 [34]: > 100 µM (inactive)
GI50 [55]: > 100 µM (inactive)
GI50 [35]: > 100 µM (inactive)
GI50 [56]: > 100 µM (inactive)
GI50 [36]: > 100 µM (inactive)
GI50 [37]: > 100 µM (inactive)
GI50 [38]: > 100 µM (inactive)
GI50 [57]: > 100 µM (inactive)
GI50 [39]: > 100 µM (inactive)
GI50 [58]: > 100 µM (inactive)
GI50 [40]: > 100 µM (inactive)
GI50 [41]: > 100 µM (inactive)
GI50 [59]: > 100 µM (inactive)
GI50 [42]: > 100 µM (inactive)
GI50 [60]: > 100 µM (inactive)
GI50 [43]: > 100 µM (inactive)
GI50 [45]: > 100 µM
GI50 [46]: > 100 µM (inactive)
